Values joined by “and” are separate entries in the source; they are usually repeats but may differ in a detail not shown here. Identical values can stand only once. “Also recorded” adds a separate entry of the source. Like-named read-outs stand apart in the source and are kept apart here.
Assays:
rabbit eyes (cornea) [1] = assay: Ex-vivo eye irritation test (EVEIT), healing of corneal abrasion lesions; settings: for starting area of corneal lesions: Example 3; for outcome of corneal lesions: Example 3, after 2 or 3 days of exposure; for Final size of corneal lesions: Example 2, after 3 days of hourly dosing 12 h/day, runs are replicates
Procedure: (§1) The physiological tolerability of F4H5 and of a mixture of 1 wt.-% ethanol in F4H5 was evaluated in an ex-vivo eye irritation test (EVEIT) using rabbit eyes taken from freshly sacrificed animals. The eyes were fastened in chambers coupled micropump systems which continuously supplied the eyes with cultivation medium (Minimal Essential Medium, MEM T031-05) without fetal calf serum. The vitality of the eyes was monitored by regularly measuring the concentration of lactate and glucose in the chamber eluate. The corneal surface of the eyes was damaged by abrasion, using a dental ceramic abrasive (638XF, Meisinger). For each eye, four lesions of 3.0 to 4.5 mm^2 were prepared.
(§2) To evaluate the effect of F4H5 and F4H5 with 1 wt.-% ethanol on the cornea, an amount of approx. 0.25 to 0.50 μl of the respective test substance was dropped onto the centre of a cornea once every hour over a period of 12 hours, followed by a 12 hour resting period in which the cornea was submersed in culture medium to simulate a closed lid during a night phase. […] Each test was performed over a period of 3 days. The effects were observed by optical coherence tomography (OCT), by digitally determining the dimensions of the lesions after staining with fluorescein, and finally by a histological evaluation of the corneal epithelium and endothelium at the end of each experiment.
(§3) Again, minimal essential medium (MEM) was included as negative control, benzalkonium chloride solution (0.01%) as positive control, and hyaluronic acid solution (0.1%) as a reference.

rabbit eyes (cornea) [2] = system: rabbit eyes (cornea)
Procedure: as §1, §2, §3

[3] = Example 3, within 3 days, first set of experiments

Row | Compound | effect on healing of abraded corneal lesions (rabbit eyes (cornea) [1]; Example 2) | morphological and histological evaluation of cornea at end of test (rabbit eyes (cornea) [1]; Example 2) | starting area of corneal lesions (rabbit eyes (cornea) [1]) [mm^2] | outcome of corneal lesions (rabbit eyes (cornea) [1]) | outcome of corneal lesions (rabbit eyes (cornea) [2]) | starting area of corneal lesions (rabbit eyes (cornea) [2]) | penetration into the cornea by OCT imaging (rabbit eyes (cornea) [1]; Example 2) | physiological tolerability (rabbit eyes (cornea) [1]; Example 2) | Final size of corneal lesions (rabbit eyes (cornea) [1]) | area of corneal damage after treatment (rabbit eyes (cornea) [1]; [3]) [mm^2] | reduction of area of corneal damage (rabbit eyes (cornea) [1]; [3]) [%]
1 | benzalkonium chloride [BAC] | rapid growth of the lesions | complete disintegration of the corneal epithelium | 11.23 | complete epithelial loss | – | – | – | – | – | – | –
2 | CCCCCCCCC(F)(F)C(F)(F)C(F)(F)C(F)(F)C(F)(F)C(F)(F)F [F6H8, 1-perfluorohexyloctane] | – | – | – | – | complete remission | 10.54-16.65 mm^2 | – | – | – | – | –
3 | CCCCCC(F)(F)C(F)(F)C(F)(F)C(F)(F)F [F4H5, 1-perfluorobutylpentane] | positive effect on the healing of damaged cornea similar to that of hyaluronic acid; also recorded: Substantial healing | healed very well | – | – | – | – | no indication of penetration | better tolerated than culture medium | 0.19 mm^2 and 1.01 mm^2 and 0.06 mm^2 | – | –
4 | hyaluronic acid [HA] | Substantial healing | healed very well | 12.16 | complete healing | – | – | – | – | 0.36 mm^2 and 0.24 mm^2 and 0.00 mm^2 | 0.32 | 97.4

Source: patent US11160865B2, “Liquid pharmaceutical composition for the delivery of active ingredients” (NOVALIQ GMBH, priority 2010, dated 2021)
